Here are results for 26 molecules from US11591341B2 (ALIGOS THERAPEUTICS, INC., priority 2019, dated 2023).

pEC50: −log10 of the molar value.

For the experiment, the system named is HBV. Put plainly: HBV-DNA Antiviral Assay Using HepG2.117 Cells (intracellular HBV DNA by qPCR). The class given is cell-based, hepatitis B virus (genotype D). The note with it: Hepatitis B virus, HepG2.117. The procedure, abridged: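 HepG2.117 cells (genotype D HBV, Tet-off) were induced by doxycycline withdrawal and treated for 3 days with 9 concentrations in 4-fold dilution, 2% DMSO final. Intracellular HBV DNA was measured by qPCR against a standard curve, with ATPlite viability read in parallel. EC50, EC90 and CC50 came from fits against the DMSO control.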
(In qPCR the cycle at which signal appears reflects the starting amount.)
With `CC(C)Oc1ccc(-n2c(C(=O)NCc3ccc(C#N)cc3F)c3n(c2=O)CCN(C(=O)c2ccc(Br)c(Cl)c2)C3)cc1` [Example 212, 7-(4-bromo-3-chloro-benzoyl)-N-[(4-cyano-2-fluoro-phenyl)methyl]-2-(4-isopropoxyphenyl)-3-oxo-6,8-dihydro-5H-imidazo[1,5-a]pyrazine-1-carboxamide], the pEC50 was 6.30 to 7.00. On to `COc1ccc(-n2c(C(=O)NCc3ccc(CC(=O)O)cc3)c3n(c2=O)CCN(C(=O)c2ccc(Br)c(Cl)c2)C3)cc1` [Example 215, 2-[4-[[[7-(4-bromo-3-chloro-benzoyl)-2-(4-methoxyphenyl)-3-oxo-6,8-dihydro-5H-imidazo[1,5-a]pyrazine-1-carbonyl]amino]methyl]phenyl]acetic acid], for which the pEC50 is < 5.30. Under `CC(C)Oc1ccc(-n2c(C(=O)NCc3ccccc3)c3n(c2=O)CCN(C(=O)/C=C/c2ccccc2Cl)C3)cc1` [Example 216, N-benzyl-7-[(E)-3-(2-chloropehnyl)prop-2-enoyl]-2-(4-isopropoxyphenyl)-3-oxo-6,8-dihydro-5H-imidazo[1,5-a]pyrazine-1-carboxamide] stands < 5.30.

`CC(C)Oc1ccc(-n2c(C(=O)NCc3ccccc3)c3n(c2=O)CCN(C(=O)c2ccc(Br)c(C#N)c2)C3)cc1` [Example 217, N-benzyl-7-(4-bromo-3-cyano-benzoyl)-2-(4-isopropoxyphenyl)-3-oxo-6,8-dihydro-5H-imidazo[1,5-a]pyrazine-1-carboxamide] showed a pEC50 of 5.30 to 6.30. With `COc1ccc(CNC(=O)c2c3n(c(=O)n2-c2ccc(OC(C)C)cc2)CCN(C(=O)c2ccc(Br)c(Cl)c2)C3)c(F)c1` [Example 218, 7-(4-bromo-3-chloro-benzoyl)-N-[(2-fluoro-4-methoxy-phenyl)methyl]-2-(4-isopropoxyphenyl)-3-oxo-6,8-dihydro-5H-imdiazo[1,5-a]pyrazine-1-carboxamide] the figure was > 7.00. With `CC(C)Oc1ccc(-n2c(C(=O)NCc3ccc4[nH]cnc4c3)c3n(c2=O)CCN(C(=O)c2ccc(Br)c(Cl)c2)C3)cc1` [Example 219, N-(1H-benzimidazol-5-ylmethyl)-7-(4-bromo-3-chloro-benzoyl)-2-(4-isopropoxyphenyl)-3-oxo-6,8-dihdyro-5H-imidazo[1,5-a]pyrazine-1-carboxamide] the figure was 5.30 to 6.30; with `CC(C)Oc1ccc(-n2c(C(=O)NCc3ccc4occc4c3)c3n(c2=O)CCN(C(=O)c2ccc(Br)c(Cl)c2)C3)cc1` [Example 220, N-(benzofuran-5-ylmethyl)-7-(4-bromo-3-chloro-benzoyl)-2-(4-isopropoxyphenyl)-3-oxo-6,8-dihydro-5H-imidazo[1,5-a]pyrazine-1-carboxamide], < 5.30; with `CC(C)Oc1ccc(-n2c(C(=O)NCc3ccc(CO)cc3)c3n(c2=O)CCN(C(=O)c2ccc(Br)c(Cl)c2)C3)cc1` [Example 221, 7-(4-bromo-3-chloro-benzoyl)-N-[[4-(hydroxymethyl)phenyl]methyl]-2-(4-isopropoxyphenyl)-3-oxo-6,8-dihydro-5H-imidazo[1,5-a]pyrazine-1-carboxamide], < 5.30. With `CC(C)Oc1ccc(-n2c(C(=O)NCc3ccccc3C(N)=O)c3n(c2=O)CCN(C(=O)c2ccc(Br)c(Cl)c2)C3)cc1` [Example 222, 7-(4-bromo-3-chloro-benozyl)-N-[(2-carbamoylphenyl)methyl]-2-(4-isopropoxyphenyl)-3-oxo-6,8-dihydro-5H-imidazo[1,5-a]pyrazine-1-carboxamide] the figure was < 5.30; with `CC(C)Oc1ccc(-n2c(C(=O)NCc3ccccc3)c3n(c2=O)CCN(C(=O)c2ccc(Br)nc2)C3)cc1` [Example 223, N-benzyl-7-(6-bromopyridine-3-carbonyl)-2-(4-isopropoxyphenyl)-3-oxo-6,8-dihydro-5H-imidazo[1,5-a]pyrazine-1-carboxamide], < 5.30.

As to `CC(C)Oc1ccc(-n2c(C(=O)NCc3ccccc3)c3n(c2=O)CCN(C(=O)c2cc4c(Cl)cccc4s2)C3)cc1` [Example 224, N-benzyl-7-(4-chlorobenzothiophene-2-carbonyl)-2-(4-isopropoxyphenyl)-3-oxo-6,8-dihydro-5H-imidazo[1,5-a]pyrazine-1-carboxamide], the pEC50 was < 5.30. With `CC(C)Oc1ccc(-n2c(C(=O)NCc3ccccc3)c3n(c2=O)CCN(C(=O)/C=C/c2cccc(Cl)c2Cl)C3)cc1` [Example 226, N-benzyl-7-[(E)-3-(2,3-dichlorophenyl)prop-2-enoyl]-2-(4-isopropoxyphenyl)-3-oxo-6,8-dihydro-5H-imidazo[1,5-a]pyrazine-1-carboxamide] the figure was < 5.30; with `CC(C)Oc1ccc(-n2c(C(=O)NCc3ccc(S(C)(=O)=O)cc3)c3n(c2=O)CCN(C(=O)c2ccc(Br)c(Cl)c2)C3)cc1` [Example 227, 7-(4-bromo-3-chloro-benzoyl)-2-(4-isopropoxypehnyl)-N-[(4-methylsulfonylphenyl)methyl]-3-oxo-6,8-dihydro-5H-imidazo[1,5-a]pyrazine-1-carboxamide], 5.30 to 6.30; with `COc1ccc(CNC(=O)c2c3n(c(=O)n2-c2ccc(OC(C)C)cc2)CCN(C(=O)c2ccc(Br)c(Cl)c2)C3)c(OC)c1` [Example 228, 7-(4-bromo-3-chloro-benzoyl)-N-[(2,4-dimethoxypehnyl)methyl]-2-(4-isopropoxyphenyl)-3-oxo-6,8-dihydro-5H-imidazo[1,5-a]pyrazine-1-carboxamide], 6.30 to 7.00. With `COc1ccc(CNC(=O)c2c3n(c(=O)n2-c2ccc(OCC(F)(F)F)cc2)CCN(C(=O)c2ccc(Br)c(Cl)c2)C3)c(OC)c1` [Example 229, 7-(4-bromo-3-chloro-benozyl)-N-[(2,4-dimethoxyphenyl)methyl]-3-oxo-2-[4-(2,2,2-trifluoroethoxy)phenyl]-6,8-dihydro-5H-imidazo[1,5-a]pyrazine-1-carboxamide] the figure was > 7.00; with `O=C(NCc1cccc2cccnc12)c1c2n(c(=O)n1-c1ccc(OCC(F)(F)F)cc1)CCN(C(=O)c1ccc(Br)c(Cl)c1)C2` [Example 230, 7-(4-bromo-3-chloro-benzoyl)-3-oxo-N-(8-quinolylmethyl)-2-[4-(2,2,2-triflurooethoxy)phenyl]-6,8-dihydro-5H-imidazo[1,5-a]pyrazine-1-carboxamide], 6.30 to 7.00. With `O=C(NCc1ccccc1-n1cccn1)c1c2n(c(=O)n1-c1ccc(OCC(F)(F)F)cc1)CCN(C(=O)c1ccc(Br)c(Cl)c1)C2` [Example 231, 7-(4-bromo-3-chloro-benzoyl)-3-oxo-N[(2-pyrazol-1-ylphenyl)methyl]-2-[4-(2,2,2-trifluoroethoxy)phenyl]-6,8-dihydro-5H-imidazo[1,5-a]pyrazine-1-carboxamide] the figure was > 7.00; with `CC(C)Oc1ccc(-n2c(C(=O)NCc3ccc(=O)n(C)c3)c3n(c2=O)CCN(C(=O)c2ccc(Br)c(Cl)c2)C3)cc1` [Example 232, 7-(4-bromo-3-chloro-benzoyl)-2-(4-isopropoxyphenyl)-N-[(1-methyl-6-oxo-3-pyridyl)methyl]-3-oxo-6,8-dihydro-5H-imidazo[1,5-a]pyrazine-1-carboxamide], < 5.30. For `COc1cc(C#N)ccc1CNC(=O)c1c2n(c(=O)n1-c1ccc(OC(C)C)cc1)CCN(C(=O)c1ccc(Br)c(Cl)c1)C2` [Example 236, 7-(4-bromo-3-chloro-benzoyl)-N-[(4-cyano-2-methoxy-phenyl)methyl]-2-(4-isopropoxyphenyl)-3-oxo-6,8-dihydro-5H-imidazo[1,5-a]pyrazine-1-carboxamide], the pEC50 was 6.30 to 7.00. Under `O=C(c1ccc(Br)c(Cl)c1)N1CCn2c(c3n(c2=O)CC2(COC2)CN(Cc2ccccc2)C3=O)C1` [Example 239, 13-benzyl-4-(4-bromo-3-chloro-benzoyl)spiro[4,7,9,13-tetrazatricyclo[7.5.0.0 2,7]tetradec-1-ene-11,3′-oxetane]-8,14-dione] stands 5.30 to 6.30.

As to `CC(C)Oc1ccc(-n2c(C(=O)NCc3ccccc3)c3n(c2=O)CCN(C(=O)/C=C/c2ccc(Cl)c(Cl)c2)C3)cc1` [Example 242, N-benzyl-7-[(E)-3-(3,4-dichlorophenyl)prop-2-enoyl]-2-(4-isopropoxyphenyl)-3-oxo-6,8-dihydro-5H-imidazo[1,5-a]pyrazine-1-carboxamide], the negative logarithm of the EC50 (pEC50) is < 5.30.

On to `CC(C)Oc1ccc(-n2c(C(=O)NCc3ccc(C(F)F)cc3)c3n(c2=O)CCN(C(=O)c2ccc(Br)c(Cl)c2)C3)cc1` [Example 243, 7-(4-bromo-3-chloro-benzoyl)-N-[[4-(difluoromethyl)phenyl]methyl]-2-(4-isopropoxyphenyl)-3-oxo-6,8-dihydro-5H-imidazo[1,5-a]pyrazine-1-carboxamide], for which the pEC50 is 6.30 to 7.00. Under `COc1ccc(CNC(=O)c2c3n(c(=O)n2-c2ccc(OCC(F)(F)F)cc2)CCN(C(=O)c2ccc(Br)c(Cl)c2)C3)c(F)c1` [Example 244, 7-(4-bromo-3-chloro-benzoyl)-N-[(2-fluoro-4-methoxy-phenyl)methyl]-3-oxo-2-[4-(2,2,2-trifluoroethoxy)phenyl]-6,8-dihydro-5H-imidazo[1,5-a]pyrazine-1-carboxamide] stands 6.30 to 7.00. Under `COc1ccc(CNC(=O)c2c3n(c(=O)n2-c2ccc(OCC(F)(F)F)cc2)CCN(C(=O)c2ccc(Br)c(Cl)c2)C3)c(C)c1` [Example 246, 7-(4-bromo-3-chloro-benzoyl)-N-[(4-methoxy-2-methyl-phenyl)methyl]-3-oxo-2-[4-(2,2,2-trifluoroethoxy)phenyl]-6,8-dihydro-5H-imidazo[1,5-a]pyrazine-1-carboxamide] stands 6.30 to 7.00.

`O=C(NCc1ccccc1)c1c2n(c(=O)n1-c1ccc3sccc3c1)CCN(C(=O)c1ccc(Br)c(Cl)c1)C2` [Example 248] showed a negative-log EC50 (pEC50) of 6.30 to 7.00. With `COc1cc(C#N)ccc1CNC(=O)c1c2n(c(=O)n1-c1ccc(OCC(F)(F)F)cc1)CCN(C(=O)c1ccc(Br)c(Cl)c1)C2` [Example 249, 7-(4-bromo-3-chloro-benzoyl)-N-[(4-cyano-2-methoxy-phenyl)methyl]-3-oxo-2-[4-(2,2,2-trifluoroethoxy)phenyl]-6,8-dihydro-5H-imidazo[1,5-a]pyrazine-1-carboxamide] the figure was 6.30 to 7.00.

In general, pEC50 refers to −log10 of the EC50, conventionally taken in molar units. A lower pEC50 goes with a high EC50.
